{
  "source": "patent US20060264460A1",
  "about": "(Wyeth, priority 2005, published 2006)",
  "data": [
    {"target": "T1, human Cot/Tpl2 kinase (Homo sapiens, UniProt P41279)", "T1 construct": "human Cot/Tpl2 kinase construct encoding residues 30-398; 6His (N); made in house; host or cells: Sf9 insect cells, baculovirus system (BD Biosciences)", "T1 sequence (P41279 30-398)": "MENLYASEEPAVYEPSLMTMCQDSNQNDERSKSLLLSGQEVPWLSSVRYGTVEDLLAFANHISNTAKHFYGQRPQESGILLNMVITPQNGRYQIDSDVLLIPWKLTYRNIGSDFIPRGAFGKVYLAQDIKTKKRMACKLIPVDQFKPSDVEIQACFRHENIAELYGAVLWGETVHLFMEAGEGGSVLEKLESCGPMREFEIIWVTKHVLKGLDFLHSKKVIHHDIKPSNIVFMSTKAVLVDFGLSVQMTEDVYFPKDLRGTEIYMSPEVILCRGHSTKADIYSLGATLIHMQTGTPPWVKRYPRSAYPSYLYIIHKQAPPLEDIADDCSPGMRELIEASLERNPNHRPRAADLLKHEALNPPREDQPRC", "experiment": "Tpl2/Cot kinase assay: GST-MEK1 phosphorylation detected by ELISA (DELFIA Eu)", "format": "biochemical", "conditions": "0.4 nM Tpl2, 35 nM GST-MEK1, 50 uM ATP, 1 h at 30° C.", "in_short": "(§1)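 Substrate phosphorylation (GST-MEK1 Ser217/221) quantified by DELFIA europium ELISA, yielding IC50 values. Reaction: 1 h at 30° C, pH 7.2 MOPS buffer, 50 uM ATP, 35 nM GST-MEK1, 0.4 nM monomeric His-Tpl2 purified from Sf9 cells, compounds at 1% final DMSO; stopped with EDTA.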", "units": {"IC50": "nM"}, "values": [
      {"compound": "CN(C)C(=O)c1cc(NCc2cnc[nH]2)cc2c(Nc3ccc(F)c(Cl)c3)c(C#N)cnc12", "note": "[Example 87, 6-((1H-imidazol-5-yl)methylamino)-4-(3-chloro-4-fluorophenylamino)-3-cyano-N,N-dimethylquinoline-8-carboxamide]", "IC50": 130},
      {"compound": "CN(C)Cc1cc(NCCN2CCOCC2)cc2c(Nc3cccc(Br)c3)c(C#N)cnc12", "note": "[Example 134, 4-(3-bromophenylamino)-8-((dimethylamino)methyl)-6-(2-morpholinoethylamino)quinoline-3-carbonitrile]", "IC50": "> 40000"},
      {"compound": "N#Cc1cnc2c(Br)cc(NCc3cn(CCN4C(=O)c5ccccc5C4=O)nn3)cc2c1Nc1ccc(F)c(Cl)c1", "note": "[Example 303, 8-Bromo-4-(3-chloro-4-fluoro-phenylamino)-6-({1-[2-(1,3-dioxo-1,3-dihydro-isoindol-2-yl)-ethyl]-1H-[1,2,3]triazol-4-ylmethyl}-amino)-quinoline-3-carbonitrile]", "IC50": "> 40000"},
      {"compound": "N#Cc1cnc2c(C(F)(F)F)cc(NCc3cnc[nH]3)cc2c1Nc1ccc(F)c(Cl)c1", "note": "[Example 229, 4-[(3-chloro-4-fluorophenyl)amino]-6-[(1H-imidazol-5-ylmethyl)amino]-8-(trifluoromethyl)quinoline-3-carbonitrile]", "IC50": 190},
      {"compound": "CCN1CCCC(n2cc(CNc3cc(Cl)c4ncc(C#N)c(Nc5ccc(F)c(Cl)c5)c4c3)nn2)CC1", "note": "(stereo not shown) [Example 330, 8-chloro-4-[(3-chloro-4-fluorophenyl)amino]-6-({[1-(1-ethylazepan-4-yl)-1H-1,2,3-triazol-4-yl]methyl}amino)quinoline-3-carbonitrile]", "IC50": 8.5},
      {"compound": "N#Cc1cnc2ccc(NCc3cccc(N)c3)cc2c1Nc1ccc(F)c(Cl)c1", "note": "[Example 14, 6-(3-Amino-benzylamino)-4-(3-chloro-4-fluoro-phenylamino)-quinoline-3-carbonitrile]", "IC50": 140},
      {"compound": "N#Cc1cnc2c(-c3ccsc3)cc(NCc3cccnc3)cc2c1Nc1cccc(Cl)c1", "note": "[Example 100, 4-(3-chlorophenylamino)-6-(pyridin-3-ylmethylamino)-8-(thiophen-3-yl)quinoline-3-carbonitrile]", "IC50": "> 40000"},
      {"compound": "N#Cc1cnc2c(Br)cc(NCc3nn[nH]c3-c3ccccc3F)cc2c1Nc1ccc(F)c(Cl)c1", "note": "[Example 118, 8-bromo-4-[(3-chloro-4-fluorophenyl)amino]-6-({[5-(2-fluorophenyl)-1H-1,2,3-triazol-4-yl]methyl}amino)quinoline-3-carbonitrile]", "IC50": 110},
      {"compound": "N#Cc1cnc2ccc(NCc3ccc(-n4ccnc4)cc3)cc2c1Nc1ccc(F)c(Cl)c1", "note": "[Example 12, 4-(3-Chloro-4-fluoro-phenylamino)-6-(4-imidazol-1-yl-benzylamino)-quinoline-3-carbonitrile]", "IC50": 1300},
      {"compound": "CN1CCCC1CCn1cc(CNc2cc(Br)c3ncc(C#N)c(Nc4ccc(F)c(Cl)c4)c3c2)nn1", "note": "(stereo not shown) [Example 305, 8-Bromo-4-(3-chloro-4-fluoro-phenylamino)-6-({1-[2-(1-methyl-pyrrolidin-2-yl)-ethyl]-1H-[1,2,3]triazol-4-ylmethyl}-amino)-quinoline-3-carbonitrile]", "IC50": 25},
      {"compound": "N#Cc1cnc2c(-c3ccoc3)cc(NCc3cccnc3)cc2c1Nc1ccc(F)c(Cl)c1", "note": "[Example 102, 4-(3-chloro-4-fluorophenylamino)-8-(furan-3-yl)-6-(pyridin-3-ylmethylamino)quinoline-3-carbonitrile]", "IC50": 1300},
      {"compound": "COc1cc(NCc2cnc[nH]2)cc2c(Nc3ccc(F)c(Cl)c3)c(C#N)cnc12", "note": "[Example 47, 4-(3-Chloro-4-fluoro-phenylamino)-6-[(3H-imidazol-4-ylmethyl)-amino]-8-methoxy-quinoline-3-carbonitrile]", "IC50": 13},
      {"compound": "N#Cc1cnc2ccc(NCCN3CCOCC3)cc2c1NC1CCCCCC1", "note": "[Example 252, 4-(cycloheptylamino)-6-[(2-morpholin-4-ylethyl)amino]quinoline-3-carbonitrile]", "IC50": 6100}
    ]},
    {"target": "T1, human Cot/Tpl2 kinase", "experiment": "Tpl2/Cot kinase assay: GST-MEK1 phosphorylation detected by ELISA (DELFIA Eu)", "format": "biochemical", "conditions": "Table 2; Tpl2/Cot kinase, GST-MEK1 substrate, 50 uM ATP", "in_short": "as §1", "units": {"IC50": "nM"}, "values": [
      {"compound": "N#Cc1cnc2ccc(NCCN3CCOCC3)cc2c1Nc1ccc(Cc2ccccc2)cc1", "note": "[Example 391]", "IC50": 26},
      {"compound": "CCCc1[nH]cnc1CNc1cc(Cl)c2ncc(C#N)c(Nc3ccc(F)c(Cl)c3)c2c1", "note": "[Example 443]", "IC50": 25},
      {"compound": "CC(C)(C)OC(=O)N1CCC(CCn2cc(CNc3cc(Cl)c4ncc(C#N)c(Nc5ccc(F)c(Cl)c5)c4c3)nn2)CC1", "note": "[Example 504]", "IC50": 75},
      {"compound": "N#Cc1cnc2c(Cl)cc(NCc3cncn3O)cc2c1Nc1ccc(F)c(Cl)c1", "note": "[Example 438]", "IC50": 110},
      {"compound": "CN1CCC(CCn2cc(CNc3cc(Cl)c4ncc(C#N)c(Nc5ccc(F)c(Cl)c5)c4c3)nn2)CC1", "note": "[Example 521]", "IC50": 38},
      {"compound": "COc1cc(NCc2cccnc2)cc2c(Nc3ccc(C)c(O)c3)c(C#N)cnc12", "note": "[Example 386]", "IC50": "> 40000"},
      {"compound": "N#Cc1cnc2c(Br)cc(NCc3cn(CC4CCCN4)nn3)cc2c1Nc1ccc(F)c(Cl)c1", "note": "(stereo not shown) [Example 550]", "IC50": 9.2},
      {"compound": "CON(C)C(=O)CNc1cc(Cl)c2ncc(C#N)c(Nc3ccc(F)c(Cl)c3)c2c1", "note": "[Example 471]", "IC50": "> 40000"},
      {"compound": "N#Cc1cnc2ccc(N)cc2c1NC1CCN(Cc2ccccc2)CC1", "note": "[Example 363]", "IC50": "> 40000"},
      {"compound": "N#Cc1cnc2ccc(NCCN3CCOCC3)cc2c1Nc1ccc(Sc2ccccc2)c(Cl)c1", "note": "[Example 353]", "IC50": 470},
      {"compound": "N#Cc1cnc2c(Br)cc(NCc3cc(C4CCNCC4)n[nH]3)cc2c1Nc1ccc(F)c(Cl)c1", "note": "[Example 537]", "IC50": 800}
    ]},
    {"target": "T1, human Cot/Tpl2 kinase", "experiment": "Tpl2/Cot kinase assay: GST-MEK1 phosphorylation detected by ELISA (DELFIA Eu)", "format": "biochemical", "conditions": "Tpl2/Cot kinase, GST-MEK1 substrate, 50 uM ATP", "in_short": "as §1", "units": {"IC50": "nM"}, "values": [
      {"compound": "CN1CCCC1CCn1cnc(CNc2cc(Br)c3ncc(C#N)c(Nc4ccc(F)c(Cl)c4)c3c2)c1", "note": "(stereo not shown) [Example 708]", "IC50": 34},
      {"compound": "N#Cc1cnc2c(Br)cc(NCc3cn(CCC4CCNCC4)nn3)cc2c1Nc1ccc(F)c(Cl)c1", "note": "[Example 691]", "IC50": 90},
      {"compound": "COCn1cc(CNc2cc(Br)c3ncc(C#N)c(Nc4ccc(F)c(Cl)c4)c3c2)nn1", "note": "[Example 917]", "IC50": 76},
      {"compound": "CN1CCN(CCCn2cc(CNc3cc(Br)c4ncc(C#N)c(Nc5ccc(F)c(Cl)c5)c4c3)nn2)CC1", "note": "[Example 795]", "IC50": 29},
      {"compound": "N#Cc1cnc2c(Cl)cc(NCCNC(=O)Cc3ccncc3)cc2c1Nc1ccc(F)c(Cl)c1", "note": "[Example 863]", "IC50": 1040},
      {"compound": "N#Cc1cnc2c(Cl)cc(NCc3cn(-c4ccnc(N5CCCCC5)n4)nn3)cc2c1Nc1ccc(F)c(Cl)c1", "note": "[Example 747]", "IC50": 320},
      {"compound": "CC(=O)NCCCn1cc(CNc2cc(Cl)c3ncc(C#N)c(Nc4ccc(F)c(Cl)c4)c3c2)nn1", "note": "[Example 910]", "IC50": 0.7}
    ]},
    {"target": "T1, human Cot/Tpl2 kinase", "experiment": "Tpl2/Cot kinase assay: GST-MEK1 phosphorylation detected by ELISA (DELFIA Eu)", "format": "biochemical", "conditions": "Tpl2/Cot kinase, GST-MEK1 substrate, 50 uM ATP, 1 h at 30° C.; Table 2", "in_short": "as §1", "units": {"IC50": "nM"}, "values": [
      {"compound": "CC(C)N1CCN(CCn2cc(CNc3cc(Cl)c4ncc(C#N)c(Nc5ccc(F)c(Cl)c5)c4c3)nn2)CC1", "note": "[Example 965]", "IC50": 430},
      {"compound": "CC(C)(C)OC(=O)N1CCC(n2cc(CNc3ccc4ncc(C#N)c(NC5CCCCC5)c4c3)nn2)CC1", "note": "[Example 968]", "IC50": 670},
      {"compound": "CC(C)(C)OC(=O)N1CCC(n2cc(CNc3cc(Cl)c4ncc(C#N)c(NC5CCC6(CCCCC6)CC5)c4c3)nn2)CC1", "note": "[Example 973]", "IC50": "> 3000"},
      {"compound": "CC1(O)CCC(n2cc(CNc3cc(Cl)c4ncc(C#N)c(Nc5ccc(F)c(Cl)c5)c4c3)nn2)CC1", "note": "(stereo not shown) [Example 1060]", "IC50": 45},
      {"compound": "CC(C)CN1C2CCC1CC(n1cc(CNc3cc(Cl)c4ncc(C#N)c(Nc5ccc(F)c(Cl)c5)c4c3)nn1)C2", "note": "(stereo not shown) [Example 1058]", "IC50": 70},
      {"compound": "CN(C)C(=O)N1CCC(n2cc(CNc3cc(Cl)c4ncc(C#N)c(Nc5ccc(F)c(Cl)c5)c4c3)nn2)CC1", "note": "[Example 929]", "IC50": 7}
    ]}
  ]
}
